Test results as given in patent US20250101041A1, “POSITIVE ALLOSTERIC MODULATORS OF THE MUSCARINIC ACETYLCHOLINE RECEPTOR M4” (Vanderbilt University, priority 2022, published 2025).

Target: T1, human mAChR M4 (Homo sapiens, UniProt P08173)
T1 construct: expressed in transfected cells; host or cells: CHO-K1 (American Type Culture Collection), stably expressing hM4 and Gqi5
T1 sequence (P08173 1-479): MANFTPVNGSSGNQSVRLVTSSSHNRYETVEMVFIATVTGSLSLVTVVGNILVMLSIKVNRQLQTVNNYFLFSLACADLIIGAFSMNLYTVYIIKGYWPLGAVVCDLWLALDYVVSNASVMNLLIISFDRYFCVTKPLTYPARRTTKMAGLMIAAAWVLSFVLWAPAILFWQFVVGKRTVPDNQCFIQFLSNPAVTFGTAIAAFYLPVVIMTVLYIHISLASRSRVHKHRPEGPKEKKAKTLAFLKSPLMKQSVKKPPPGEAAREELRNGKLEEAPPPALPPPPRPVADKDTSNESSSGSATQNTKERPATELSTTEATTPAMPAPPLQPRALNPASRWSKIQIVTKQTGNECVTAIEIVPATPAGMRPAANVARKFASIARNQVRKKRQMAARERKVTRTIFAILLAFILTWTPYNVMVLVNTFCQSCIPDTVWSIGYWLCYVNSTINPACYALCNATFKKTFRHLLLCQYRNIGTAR
Assay: mAChR M4 cell-based functional assay: calcium mobilization (Fluo-4, FDSS), potentiation of EC20 acetylcholine response in hM4-Gqi5 CHO-K1 cells
Conditions: human M4; for Emax at 30 µM: CHO-K1, % ACh maximum at 30 μM; for EC50: potentiation of EC20 acetylcholine response, calcium mobilization
Procedure, shortened: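 CHO-K1 cells stably co-expressing human M4 and chimeric Gqi5, loaded with Fluo-4 AM (50 min, 37 °C). Compounds in 11-point 1:3 series added first; EC20 acetylcholine added at 144 s and again at 230 s. Calcium read on FDSS at 1 Hz; EC50 and Emax from four-parameter logistic fit of potentiated EC20 response.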

Row | Emax at 30 µM [%] | EC50 [nM] | Compound
1 | 90 | 198 | Cc1cc(=O)n2nc(N3CCc4ncc(-c5cnccc5C)cc4C3)c(C)c(C)c2n1 [Compound 1-117, 2,8,9-trimethyl-7-(3-(4-methylpyridin-3-yl)-7,8-dihydro-1,6-naphthyridin-6(5H)-yl)-4H-pyrimido[1,2-b]pyridazin-4-one]
2 | 79 | 152 | Cc1ccc(-c2cnc3c(c2)CN(c2nn4c(=O)c(Br)cnc4cc2C)CC3)cn1 [Compound 1-78, 3-bromo-8-methyl-7-(3-(6-methylpyridin-3-yl)-7,8-dihydro-1,6-naphthyridin-6(5H)-yl)-4H-pyrimido[1,2-b]pyridazin-4-one]
3 | 99 | 68 | Cc1ccncc1-c1cnc2c(c1)CN(c1nn3c(=O)ccnc3c(C)c1C)CC2 [Compound 1-95, 8,9-dimethyl-7-(3-(4-methylpyridin-3-yl)-7,8-dihydro-1,6-naphthyridin-6(5H)-yl)-4H-pyrimido[1,2-b]pyridazin-4-one]
4 | 83 | 6070 | Cc1cc(=O)n2nc(N3CCc4ncc(-c5cncnc5)cc4C3)c(C)c(C)c2n1 [Compound 1-118, 2,8,9-trimethyl-7-(3-(pyrimidin-5-yl)-7,8-dihydro-1,6-naphthyridin-6(5H)-yl)-4H-pyrimido[1,2-b]pyridazin-4-one]
5 | 70 | 656 | Cc1cncc(-c2cnc3c(c2)CN(c2nn4c(=O)ccnc4cc2C)CC3)c1 [Compound 1-65, 8-methyl-7-(3-(5-methylpyridin-3-yl)-7,8-dihydro-1,6-naphthyridin-6(5H)-yl)-4H-pyrimido[1,2-b]pyridazin-4-one]
6 | 63 | 2470 | Cc1cc(=O)n2nc(N3CCc4ncc(-c5cnn(-c6ccccc6F)c5)cc4C3)c(C)c(C)c2n1 [Compound 1-180, 7-(3-(1-(2-fluorophenyl)-1H-pyrazol-4-yl)-7,8-dihydro-1,6-naphthyridin-6(5H)-yl)-2,8,9-trimethyl-4H-pyrimido[1,2-b]pyridazin-4-one]
7 | 97 | 165 | Cc1cc(N)ncc1-c1cnc2c(c1)CN(c1nn3c(=O)ccnc3cc1C)CC2 [Compound 1-404, 7-(3-(6-amino-4-methylpyridin-3-yl)-7,8-dihydro-1,6-naphthyridin-6(5H)-yl)-8-methyl-4H-pyrimido[1,2-b]pyridazin-4-one]
8 | 80 | 133 | Cc1c(N2CCc3ncc(-c4cnn(C5CC5)c4)cc3C2)nn2c(=O)ccnc2c1C [Compound 1-152, 7-(3-(1-cyclopropyl-1H-pyrazol-4-yl)-7,8-dihydro-1,6-naphthyridin-6(5H)-yl)-8,9-dimethyl-4H-pyrimido[1,2-b]pyridazin-4-one]
9 | 71 | 340 | Cc1cc(=O)n2nc(N3CCc4ncc(C(F)(F)F)cc4C3)c(C)cc2n1 [Compound 1-16, 2,8-dimethyl-7-(3-(trifluoromethyl)-7,8-dihydro-1,6-naphthyridin-6(5H)-yl)-4H-pyrimido[1,2-b]pyridazin-4-one]
10 | 46 | 1250 | COc1ccc(-c2cnc3c(c2)CN(c2nn4c(=O)cc(C(F)(F)F)nc4cc2C)CC3)cn1 [Compound 1-75, 7-(3-(6-methoxypyridin-3-yl)-7,8-dihydro-1,6-naphthyridin-6(5H)-yl)-8-methyl-2-(trifluoromethyl)-4H-pyrimido[1,2-b]pyridazin-4-one]
11 | 76 | 446 | Cc1cc(=O)n2nc(N3CCc4ncc(-c5cccc(F)c5)cc4C3)c(C)cc2n1 [Compound 1-211, 7-(3-(3-fluorophenyl)-7,8-dihydro-1,6-naphthyridin-6(5H)-yl)-2,8-dimethyl-4H-pyrimido[1,2-b]pyridazin-4-one]
12 | 76 | 5340 | Cc1cc2nccc(=O)n2nc1N1CCc2ncc(N3CCOC(c4ccccn4)C3)cc2C1 (stereo not shown) [Compound 2-76, 8-methyl-7-(3-(2-(pyridin-2-yl)morpholino)-7,8-dihydro-1,6-naphthyridin-6(5H)-yl)-4H-pyrimido[1,2-b]pyridazin-4-one]
13 | 92 | 158 | Cc1cc2ncc(Cl)c(=O)n2nc1N1CCc2ncc(-c3cn(C)nc3C)cc2C1 [Compound 1-11, 3-chloro-7-(3-(1,3-dimethyl-1H-pyrazol-4-yl)-7,8-dihydro-1,6-naphthyridin-6(5H)-yl)-8-methyl-4H-pyrimido[1,2-b]pyridazin-4-one]
14 | 83 | 430 | Cc1cc2nccc(=O)n2nc1N1CCc2ncc(-c3cccc4ncccc34)cc2C1 [Compound 1-41, 8-methyl-7-(3-(quinolin-5-yl)-7,8-dihydro-1,6-naphthyridin-6(5H)-yl)-4H-pyrimido[1,2-b]pyridazin-4-one]
15 | 86 | 422 | Cc1ncc(-c2cnc3c(c2)CN(c2nn4c(=O)ccnc4cc2C)CC3)s1 [Compound 1-5, 8-methyl-7-(3-(2-methylthiazol-5-yl)-7,8-dihydro-1,6-naphthyridin-6(5H)-yl)-4H-pyrimido[1,2-b]pyridazin-4-one]
16 | 90 | 375 | Cc1cc(=O)n2nc(N3CCc4ncc(-c5cccnc5)cc4C3)c(C)cc2n1 [Compound 1-290, 2,8-dimethyl-7-(3-(pyridin-3-yl)-7,8-dihydro-1,6-naphthyridin-6(5H)-yl)-4H-pyrimido[1,2-b]pyridazin-4-one]
17 | 95 | 433 | Cc1cc(C(F)(F)F)ncc1-c1cnc2c(c1)CN(c1nn3c(=O)ccnc3cc1C)CC2 [Compound 1-400, 8-methyl-7-(3-(4-methyl-6-(trifluoromethyl)pyridin-3-yl)-7,8-dihydro-1,6-naphthyridin-6(5H)-yl)-4H-pyrimido[1,2-b] pyridazin-4-one]
18 | 49 | – | Cc1cc2nccc(=O)n2nc1N1CCc2ncc(-c3ncc(C)n3C)cc2C1 [Compound 1-391, 7-(3-(1,5-dimethyl-1H-imidazol-2-yl)-7,8-dihydro-1,6-naphthyridin-6(5H)-yl)-8-methyl-4H-pyrimido[1,2-b]pyridazin-4-one]
19 | 90 | 209 | Cc1cc2nc(C(F)F)cc(=O)n2nc1N1CCc2ncc(N3CCO[C@H](C)C3)cc2C1 [Compound 2-25, (R)-2-(difluoromethyl)-8-methyl-7-(3-(2-methylmorpholino)-7,8-dihydro-1,6-naphthyridin-6(5H)-yl)-4H-pyrimido[1,2-b]pyridazin-4-one]
20 | 85 | 83 | COc1ccsc1-c1cnc2c(c1)CN(c1nn3c(=O)cc(C)nc3cc1C)CC2 [Compound 1-298, 7-(3-(3-methoxythiophen-2-yl)-7,8-dihydro-1,6-naphthyridin-6(5H)-yl)-2,8-dimethyl-4H-pyrimido[1,2-b]pyridazin-4-one]
21 | 94 | 243 | Cc1ccc(-c2cnc3c(c2)CN(c2nn4c(=O)c(C)cnc4cc2C)CC3)cn1 [Compound 1-86, 3,8-dimethyl-7-(3-(6-methylpyridin-3-yl)-7,8-dihydro-1,6-naphthyridin-6(5H)-yl)-4H-pyrimido[1,2-b]pyridazin-4-one]
22 | 63 | 130 | Cc1cc2nccc(=O)n2nc1N1CCc2ncc(-c3cncc(F)c3C)cc2C1 [Compound 1-399, 7-(3-(5-fluoro-4-methylpyridin-3-yl)-7,8-dihydro-1,6-naphthyridin-6(5H)-yl)-8-methyl-4H-pyrimido[1,2-b]pyridazin-4-one]
